Experimental data as given in PMC3915196, “Asymmetric Synthesis of Spirocyclic 2-Benzopyrans for Positron Emission Tomography of σ1 Receptors in the Brain” (Pharmaceuticals, 2014).
Read-outs that look alike come from different tables or passages of the source. Marks after values point to notes of the source that are not given here. Blank lines part the entries; values can stand above or below the compound they belong to.

Assays:
[1] = cited from earlier work
σ1 receptor [2] = molecular target: T1, σ1 receptor (Cavia porcellus, UniProt Q60492); assay: σ1 receptor binding assay with [3H]-(+)-pentazocine; set-up: species or system guinea pig
T1 construct: five guinea pig brains were homogenized with the Potter; tissue Harlan-Winkelmann, Borchen, Germany; host or cells: guinea pig brain (cortex) membrane homogenate
T1 sequence (Q60492 whole entry): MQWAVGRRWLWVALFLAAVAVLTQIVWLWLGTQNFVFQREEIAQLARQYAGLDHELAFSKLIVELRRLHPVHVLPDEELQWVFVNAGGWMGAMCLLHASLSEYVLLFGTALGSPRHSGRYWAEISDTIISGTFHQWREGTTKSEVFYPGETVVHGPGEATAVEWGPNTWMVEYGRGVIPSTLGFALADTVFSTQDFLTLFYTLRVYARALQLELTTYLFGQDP

σ2 receptor = molecular target: T2, σ2 receptor (Rattus norvegicus, UniProt Q5U3Y7); assay: σ2 receptor binding assay with [3H]DTG, σ1 sites masked with (+)-pentazocine; settings: for inhibition at 1 µM: read-out: Inhibition of radioligand binding (σ2)
T2 construct: two rat livers were cut into small pieces and homogenized with the Potter; tissue Harlan-Winkelmann, Borchen, Germany; host or cells: rat liver membrane homogenate
T2 sequence (Q5U3Y7 1-176): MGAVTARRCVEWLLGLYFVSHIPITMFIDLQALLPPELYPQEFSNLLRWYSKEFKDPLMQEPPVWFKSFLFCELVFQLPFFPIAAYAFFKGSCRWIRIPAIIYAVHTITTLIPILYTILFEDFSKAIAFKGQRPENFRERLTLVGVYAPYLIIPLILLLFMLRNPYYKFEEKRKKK

[3] = molecular target: T3, σ1 receptors in the brain (Mus musculus, UniProt O55242); set-up: method as in PMID 21072511; settings: 30 min after injection, 18F-labeled tracer; cited from earlier work
T3 construct: tissue Medizinisch-Experimentelles Zentrum, Universität Leipzig; host or cells: brain of female CD1 mice (in vivo / ex vivo autoradiography)
T3 sequence (O55242 whole entry): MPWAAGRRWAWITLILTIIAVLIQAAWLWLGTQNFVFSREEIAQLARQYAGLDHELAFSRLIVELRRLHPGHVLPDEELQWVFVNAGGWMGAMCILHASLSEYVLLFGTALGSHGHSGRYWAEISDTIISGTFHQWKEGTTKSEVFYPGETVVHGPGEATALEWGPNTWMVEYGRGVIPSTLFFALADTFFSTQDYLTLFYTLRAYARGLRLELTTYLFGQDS

[4] = HPLC calibration; cited from earlier work
[5] = molecular target: T3, σ1 receptors in the brain; assay: Brain uptake and ex vivo autoradiography under control and haloperidol blocking conditions; type: in vivo
Method: The experimental protocols were approved by the local ethics committee and conducted according to the national and EU regulations for animal research. Female CD1 mice (10–12 weeks old, 33.8 ± 6.2 g) were obtained from the Medizinisch-Experimentelles Zentrum, Universität Leipzig and housed under a 12 h/12 h light/dark cycle with free access to food and water for at least 24 h before experiments. Animals were sacrificed by CO2 asphyxiation after anaesthesia with O2/CO2 mixture.
The tracer distribution in the brain under control and blocking conditions was determined by ex vivo autoradiography studies. […] Animals were sacrificed at 30 min p.i. Blood was collected by heart puncture, the brain quickly removed and transferred on ice, and all samples were weighed. Radioactivity in brain and plasma samples was counted using an automated γ-counter and expressed as percentage of injected dose per gram (%ID/g). For autoradiography, the brain hemispheres were frozen immediately after isolation in 2-methylbutane (Carl Roth, Karlsruhe, Germany) at −30 °C (>2 min). Serial sagittal slices of 12 µm thickness were cut on a cryostat (Microm, Walldorf, Germany) from approx. midline, +500 µm, +1,000 µm and +1,500 µm. Slices were exposed overnight on an imaging plate (SR 2025, Fuji, Tokyo, Japan), scanned afterwards with a high-resolution phosphorimager (HD-CR 35 Bio, raytest). 2D densitometry of the whole brain was performed with AIDA software (raytest).

[6] = phosphate buffer, Dulbecco buffer and native mouse plasma over 30 min at 37 °C
[7] = female, CD1, mouse, in vivo
σ1 receptor [8] = molecular target: T1, σ1 receptor; settings: earlier 2-benzofuran tracers, quoted for comparison, no reference printed at the values; cited from earlier work
[9] = established PET tracers, quoted for comparison, no reference given
[10] = rat liver membranes, [3H]DTG, read-out: Ki ± SEM σ2
[11] = at a concentration of 1 µM, rat liver membranes, [3H]DTG

Compound: [18F]CCCC1OC2(CCN(Cc3ccccc3)CC2)c2ccccc21 (stereo not drawn) [[^18F]2c]
parent compound in liver samples [1, 9]: 65% | unchanged parent compound in plasma [1, 9]: 86%

Compound: tert-Butyl (S)-4-hydroxy-3,4-dihydrospiro[[2]benzopyran-1,4′-piperidine]-1′-carboxylate [(S)-11]
Selectivity σ1/σ2 (σ1 receptor [2]): >55 | Ki (σ1 receptor [2]; read-out: Ki ± SEM σ1): 18 ± 5 nM | Inhibition of radioligand binding (σ2) (σ2 receptor; 1 µM): 24% *

Ki (σ1 receptor [2]; guinea pig brain membranes, [3H]-(+)-pentazocine, three independent experiments, read-out: Ki ± SEM σ1): 5.2 ± 0.3 nM | Selectivity σ1/σ2 (σ1 receptor [2]; ratio of σ2 and σ1 Ki values): 413 | Ki (σ2 receptor; [10]): 2150 nM | melting point: 161 °C
Compound: CC(C)(C)OC(=O)N1CCC2(CC1)OC[C@H](O)c1ccccc12 [(R)-11, tert-Butyl (R)-4-hydroxy-3,4-dihydrospiro[[2]benzopyran-1,4′-piperidine]-1′-carboxylate]

Compound: FCCO[C@@H]1COC2(CCN(Cc3ccccc3)CC2)c2ccccc21 [(S)-20, (S)-1′-Benzyl-4-(2-fluoroethoxy)-3,4-dohydrospiro[[2]benzopyran-1,4′-piperidine]]
Ki (σ1 receptor [2]): 5.9 ± 2.9 nM | Selectivity σ1/σ2 (σ1 receptor [2]): >170 | inhibition at 1 µM (σ2 receptor; [11]): 10%

Compound: CCO[C@@H]1COC2(CCN(Cc3ccccc3)CC2)c2ccccc21 [(S)-16, (S)-1′-Benzyl-4-ethoxy-3,4-dihydrospiro[[2]benzopyran-1,4′-piperidine]]
Ki (σ1 receptor [2]): 4.2 ± 0.8 nM | Selectivity σ1/σ2 (σ1 receptor [2]): >235 | inhibition at 1 µM (σ2 receptor): 31%

Compound: FCCCCC1OC2(CCN(Cc3ccccc3)CC2)c2ccccc21 (stereo not drawn) [Compound 2d]
total-to-nonspecific binding ratio [3]: approx. 3

Compound: FCCC1OC2(CCN(Cc3ccccc3)CC2)c2ccccc21 (stereo not drawn) [[^18F]2b]
total-to-nonspecific binding ratio [3]: approx. 3 | parent compound in liver samples ([1]; mouse, in vivo): 69% | unchanged parent compound in plasma ([1]; mouse, in vivo): 89%

Compound: Clc1ccccc1 [chlorobenzene]
logD of reference compounds used for calibration [4]: 2.8

Compound: c1ccc2ccccc2c1 [naphthalene]
logD of reference compounds used for calibration [4]: 3.6

melting point: 55 °C
Compound: O[C@H]1COC2(CCN(Cc3ccccc3)CC2)c2ccccc21

melting point: 53 °C
Compound: O[C@@H]1COC2(CCN(Cc3ccccc3)CC2)c2ccccc21

Compound: CCOC(=O)CO[C@H]1COC2(CCN(Cc3ccccc3)CC2)c2ccccc21 [(R)-18, Ethyl (R)-2-[(1′-benzyl-3,4-dihydrospiro[[2]benzopyran-1,4′-piperidin]-4-yl)oxy]acetate]
Ki (σ1 receptor [2]): 4 ± 0.8 nM | Selectivity σ1/σ2 (σ1 receptor [2]): 138 | eudismic ratio (σ1 affinity) (σ1 receptor [2]): 29 | Ki (σ2 receptor): 552 nM

Compound: OCCO[C@H]1COC2(CCN(Cc3ccccc3)CC2)c2ccccc21 [(R)-19, (R)-2-[(1′-Benzyl-3,4-dihydrospiro[[2]benzopyran-1,4′-piperidin]-4-yl)oxy]ethanol]
Ki (σ1 receptor [2]): 55 ± 1 nM | Selectivity σ1/σ2 (σ1 receptor [2]): >15 | inhibition at 1 µM (σ2 receptor; [11]): 0%

Compound: CCOC(=O)CO[C@@H]1COC2(CCN(Cc3ccccc3)CC2)c2ccccc21 [(S)-18, Ethyl (S)-2-[(1′-benzyl-3,4-dihydro-3,4-dihydrospiro[2-benzopyran-1,4′-piperidin]-4-yl)oxy]acetate]
Ki (σ1 receptor [2]): 114 nM | Selectivity σ1/σ2 (σ1 receptor [2]): >5 | inhibition at 1 µM (σ2 receptor): 12%

Compound: OCCO[C@@H]1COC2(CCN(Cc3ccccc3)CC2)c2ccccc21 [(S)-19, (S)-2-[(1′-Benzyl-3,4-dihydrospiro[[2]benzopyran-1,4′-piperidin]-4-yl)oxy]ethanol]
Ki (σ1 receptor [2]): 64 ± 0.9 nM | Selectivity σ1/σ2 (σ1 receptor [2]): >15 | inhibition at 1 µM (σ2 receptor; [11]): 0%

Compound: [18F]CCO[C@H]1COC2(CCN(Cc3ccccc3)CC2)c2ccccc21 [[^18F]-(R)-20]
Ki (σ1 receptor [2]): 4.7 nM | mean decrease of radiotracer uptake in slices of the whole brain hemisphere with haloperidol ([5]; 2D densitometry of ex vivo autoradiographs): about 40% | total-to-nonspecific binding ratio ([5]; mouse brain, 30 min p.i.): 1.5 | uptake of radioactivity in the brain ([5]; mouse, 30 min p.i., blocking conditions, co-application of 1 mg/kg haloperidol): 2.24 % ID/g | uptake of radioactivity in the brain ([5]; mouse, 30 min p.i., control conditions): 3.4 % ID/g | reduction of brain uptake by haloperidol co-application ([5]; mouse, 30 min p.i., from %ID/g values): 34% | defluorination [6]: No defluorination was observed | non-metabolized radiotracer of total radioactivity in urine ([7]; 0.5 h): 2-20% | unchanged parent radiotracer in liver ([7]; 30 min): ~56%

Compound: FCCC1OC2(CCN(Cc3ccccc3)CC2)c2ccccc21 (stereo not drawn) [fluspidine]
Ki (σ1 receptor [8]): 0.59 nM

Compound: c1ccc2c(c1)-c1cccc3cccc-2c13 [fluoranthene]
logD of reference compounds used for calibration [4]: 5.1

Compound: CO[C@@H]1COC2(CCN(Cc3ccccc3)CC2)c2ccccc21 [(S)-15, (S)-1′-Benzyl-4-methoxy-3,4-dihydrospiro[[2]benzopyran-1,4′-piperidine]]
Ki (σ1 receptor [2]): 8.8 ± 1.1 nM | Selectivity σ1/σ2 (σ1 receptor [2]): 77 | Ki (σ2 receptor; [10]): 676 nM

Compound: CCO[C@H]1COC2(CCN(Cc3ccccc3)CC2)c2ccccc21 [(R)-16, (R)-1′-Benzyl-4-ethoxy-3,4-dihydrospiro[[2]benzopyran-1,4′-piperidine]]
Ki (σ1 receptor [2]): 5 ± 1.2 nM | Selectivity σ1/σ2 (σ1 receptor [2]): 191 | Ki (σ2 receptor): 954 nM

Compound: FCCO[C@H]1COC2(CCN(Cc3ccccc3)CC2)c2ccccc21 [(R)-20, (R)-1′-Benzyl-4-(2-fluoroethoxy)-3,4-dihydrospiro[[2]benzopyran-1,4′-piperidine]]
Ki (σ1 receptor [2]): 4.7 ± 0.7 nM | Selectivity σ1/σ2 (σ1 receptor [2]): >210 | inhibition at 1 µM (σ2 receptor; [11]): 14%

Compound: CO[C@H]1COC2(CCN(Cc3ccccc3)CC2)c2ccccc21 [(R)-15, (R)-1′-Benzyl-4-methoxy-3,4-dihydrospiro[[2]benzopyran-1,4′-piperidine]]
Ki (σ1 receptor [2]): 1.2 ± 0.3 nM | Selectivity σ1/σ2 (σ1 receptor [2]): 958 | eudismic ratio (σ1 affinity) (σ1 receptor [2]): 7 | Ki (σ2 receptor; [10]): 1150 nM
